Measurements from patent US8377929B2, “Crystalline forms of the tri-mesylate salt of perphenazine-GABA and process of producing the same” (Ramot at Tel-Aviv University Ltd., priority 2010, dated 2013).

Key:
Assay type in all cases: physicochemical
[1] = Particle size (Malvern MS2000); parameters: unit not given here; details: particle size distribution, 0.1% SPAN 85 in hexane, sonication 10 seconds, unit μm
Source text: Particle size data was acquired using a Malvern Instruments MS2000 equipped with a Hydro2000 μP dispersion unit. Data was collected and analyzed with Mastersizer 2000 v. 5.1 software, using volume based measurements. NIST traceable glass beads were used as the reference standard. […] Model: general purpose; Sensitivity: normal.

Bulk and tapped density = assay: Bulk and tapped density
Source text: Samples were submitted to Particle Technology Labs (PTL), Downers Grove, Ill., for bulk and tapped density analyses.

[2] = Stability and hygroscopy of crystalline Form B compared to crystalline Form A; details: as compared to crystalline Form A
[3] = Moisture absorption/desorption (DVS); details: for Weight gain from 5-55% RH / Weight gain from 55-95% RH: DVS adsorption phase; for Weight gain from 55-95% RH: samples did not reach equilibration; for Weight loss from 95-5% RH: DVS desorption phase; for Weight loss at 5% RH: DVS, upon equilibration to 5% RH
Description: Moisture absorption/desorption (DVS) data was collected on a VTI SGA-100 Vapor Sorption Analyzer. Absorption and desorption data were collected over a range of 5% to 95% relative humidity (RH) at 10% RH intervals under a nitrogen purge. Samples were not dried prior to analyses. Equilibrium criteria used for analyses were less than 0.0100% weight change in 5 minutes, with a maximum equilibrium time of 3 hours if the weight criterion was not met. Data were not corrected for the initial moisture content of the samples. NaCl and PVP were used as calibration standards.

[4] = BET surface area (nitrogen absorption); details: 11-point BET, outgassed at 40° C. under vacuum
Description: Surface area data were collected using nitrogen absorption on a BET Micrometics Gemini V (11-point BET analysis) analyzer. The samples were outgassed at 40° C. under vacuum for at least 2 hours. SRM 1899 and SRM 1900 were used as the calibration standards.

CS(=O)(=O)O.CS(=O)(=O)O.CS(=O)(=O)O.NCCCC(=O)OCCN1CCN(CCCN2c3ccccc3Sc3ccc(Cl)cc32)CC1 [BL-1020 MSA salt crystalline Form B, perphenazine 4-aminobutyrate trimesylate]
d10 ([1]; listed as 01BIL02-01-22): 2.1 | d50 ([1]; listed as 01BIL02-01-22): 5.8 | d90 ([1]; listed as 01BIL02-01-22): 18.3 | d10 ([1]; listed as 01BIL02-02-22): 2.1 | d50 ([1]; listed as 01BIL02-02-22): 6.1 | d90 ([1]; listed as 01BIL02-02-22): 22.5 | d10 ([1]; listed as 01BIL02-03-22): 2.1 | d50 ([1]; listed as 01BIL02-03-22): 6.2 | d90 ([1]; listed as 01BIL02-03-22): 19.7 | d10 ([1]; listed as 01BIL02-04-22): 2.3 | d50 ([1]; listed as 01BIL02-04-22): 6.8 | d90 ([1]; listed as 01BIL02-04-22): 21.8 | d10 ([1]; listed as 06-01915-3): 3.8 | d50 ([1]; listed as 06-01915-3): 9.3 | d90 ([1]; listed as 06-01915-3): 41.8 | Bulk density (Bulk and tapped density; listed as 01BIL02-01-22): 0.16 g/mL | Tapped density (Bulk and tapped density; listed as 01BIL02-01-22): 0.25 g/mL | Bulk density (Bulk and tapped density; listed as 01BIL02-02-22): 0.16 g/mL | Tapped density (Bulk and tapped density; listed as 01BIL02-02-22): 0.24 g/mL | Bulk density (Bulk and tapped density; listed as 01BIL02-03-22): 0.18 g/mL | Tapped density (Bulk and tapped density; listed as 01BIL02-03-22): 0.26 g/mL | Bulk density (Bulk and tapped density; listed as 01BIL02-04-22): 0.13 g/mL | Tapped density (Bulk and tapped density; listed as 01BIL02-04-22): 0.22 g/mL | Bulk density (Bulk and tapped density; listed as 06-01915-3): 0.18 g/mL | Tapped density (Bulk and tapped density; listed as 06-01915-3): 0.24 g/mL | Hygroscopy [2]: reduced hygroscopy | Stability [2]: higher stability | Weight gain from 5-55% RH ([3]; listed as 01BIL02-01-22): 0.4% | Weight gain from 5-55% RH ([3]; listed as 01BIL02-02-22): 0.4% | Weight gain from 5-55% RH ([3]; listed as 01BIL02-03-22): 0.4% | Weight gain from 5-55% RH ([3]; listed as 01BIL02-04-22): 0.4% | Weight gain from 5-55% RH ([3]; listed as 01BIL02-05-26): 0.4% | Weight gain from 5-55% RH ([3]; listed as 06-01915-3): 0.6% | Weight gain from 55-95% RH ([3]; listed as 01BIL02-01-22): 71.6% | Weight gain from 55-95% RH ([3]; listed as 01BIL02-02-22): 69.8% | Weight gain from 55-95% RH ([3]; listed as 01BIL02-03-22): 72.7% | Weight gain from 55-95% RH ([3]; listed as 01BIL02-04-22): 70.5% | Weight gain from 55-95% RH ([3]; listed as 01BIL02-05-26): 68.9% | Weight gain from 55-95% RH ([3]; listed as 06-01915-3): 71.6% | Weight loss from 95-5% RH ([3]; listed as 01BIL02-01-22): 67.0% | Weight loss from 95-5% RH ([3]; listed as 01BIL02-02-22): 64.8% | Weight loss from 95-5% RH ([3]; listed as 01BIL02-03-22): 67.6% | Weight loss from 95-5% RH ([3]; listed as 01BIL02-04-22): 66.0% | Weight loss from 95-5% RH ([3]; listed as 01BIL02-05-26): 64.8% | Weight loss from 95-5% RH ([3]; listed as 06-01915-3): 66.9% | Weight loss at 5% RH ([3]; listed as 01BIL02-01-22): 0.1% | Weight loss at 5% RH ([3]; listed as 01BIL02-02-22): 0.1% | Weight loss at 5% RH ([3]; listed as 01BIL02-03-22): 0.1% | Weight loss at 5% RH ([3]; listed as 01BIL02-04-22): 0.1% | Weight loss at 5% RH ([3]; listed as 01BIL02-05-26): 0.3% | Weight loss at 5% RH ([3]; listed as 06-01915-3): 0.6% | BET surface area ([4]; listed as 01BIL02-01-22): 4.77 m^2/g | BET surface area ([4]; listed as 01BIL02-02-22): 4.55 m^2/g | BET surface area ([4]; listed as 01BIL02-03-22): 4.93 m^2/g | BET surface area ([4]; listed as 01BIL02-04-22): 4.57 m^2/g | BET surface area ([4]; listed as 01BIL02-05-26): 2.67 m^2/g | BET surface area ([4]; listed as 06-01915-3): 4.84 m^2/g
